The target of assay [1] is T1, MCT1 with a streptavidin-binding sequence tag (Homo sapiens, UniProt P53985, D490E).
T1 construct: The invention is not restricted to the use of full-length native human MCTs; made in house; host or cells: Saccharomyces cerevisiae BY4742 (jen1 deletion), membrane preparation; plasmid pACES14-MCT1-strep tag
T1 sequence (P53985 1-500 D490E): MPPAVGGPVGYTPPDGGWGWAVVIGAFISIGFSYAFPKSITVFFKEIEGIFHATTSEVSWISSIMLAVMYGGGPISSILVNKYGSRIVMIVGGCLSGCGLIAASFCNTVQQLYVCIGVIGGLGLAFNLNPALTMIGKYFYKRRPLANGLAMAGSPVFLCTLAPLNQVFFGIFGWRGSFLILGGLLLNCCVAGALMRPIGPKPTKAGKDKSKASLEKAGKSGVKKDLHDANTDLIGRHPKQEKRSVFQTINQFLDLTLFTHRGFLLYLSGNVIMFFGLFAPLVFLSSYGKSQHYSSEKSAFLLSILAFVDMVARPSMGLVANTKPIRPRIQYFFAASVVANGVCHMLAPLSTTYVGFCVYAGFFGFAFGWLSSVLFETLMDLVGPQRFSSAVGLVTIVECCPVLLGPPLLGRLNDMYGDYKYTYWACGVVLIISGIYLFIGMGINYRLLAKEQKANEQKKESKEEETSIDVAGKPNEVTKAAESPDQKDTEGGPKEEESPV
In words: Yeast membrane MCT1-strep tagged SPA assay (125I ligand A). The settings on record: 0.1 nM 125I ligand A. Here is the method: Yeast membranes expressing MCT1 with a streptavidin-binding sequence tag were then added to give a final concentration of 37 μg/ml protein and gently rolled for >30 minutes at room temperature. The beads/membranes were then washed by centrifugation at ˜650 g for 10 minutes and resuspended in assay buffer+0.05% BSA. The washing was repeated once before resuspended in the appropriate volume of assay buffer+0.05% BSA.
Finally, 80 μl of the membrane/bead suspension was added to each well. […] The raw counts were analysed by averaging replicates, subtraction of non-specific binding and the subsequent calculation of % inhibition of binding of the iodinated ligand.

In a further assay the target is T2, MCT1 (Homo sapiens, UniProt P53985, D490E).
T2 sequence (P53985 1-500 D490E): T1 sequence (P53985 1-500 D490E)
In words: Yeast expressed MCT1 filter binding assay (competition with 3H-ligand C). The conditions noted are these: yeast membrane MCT1 filter binding, 2.5 nM 3H-ligand C. Also noted: The invention is not restricted to the use of full-length native human MCTs; made in house; host or cells: Saccharomyces cerevisiae BY4742 (jen1 deletion), membrane preparation; plasmid pACES14-hMCT1. The method, then: Assay to Measure the Potency of Selected Compounds Using a Filter Binding Assay
Competition assays can be used to measure the affinity of unlabelled compound for MCT1. […] 180 μl of yeast membranes expressing MCT1 in assay buffer containing typically 0.5 to 1 μg total protein was added to start the reaction. […] The competition assay was incubated at 2 hours at room temperature with shaking. Experimental data points were usually carried out in triplicate. The membranes were harvested onto GF-B filter plates and washed with assay buffer without BSA, dried, scintillant added and counts detected using a tritium program on a Packard Top Count plate reader. The results were analysed by subtraction of the non-specific binding from each of the experimental points and then fitting a sigmoidal curve through a semi-log plot of the data in Microcal Origin.

A further assay relates to IgE production. In words: Inhibition of murine antibody production, IgE (ovalbumin immunised). Type of assay: in vivo, Balb/c mice. The conditions noted are these: 10 days following antigenic boost. The method, then:
Balb/c mice were immunised with 0.5 mg/kg ovalbumin (OVA) and 200 mg/kg aluminium hydroxide gel in saline intraperitoneally and left for 29 days before being re-challenged intraperotoneally with 0.5 mg/kg ovalbumin in buffered saline vehicle and left for a further 10 days. Compound was dosed daily from re-challenge to termination prior to serum collection. Control groups were dosed with compound vehicle only. On completion of dosing, serum samples were taken from the mice and analysed for total and specific levels of IgE.
For total IgE, microtitre plates were coated with 5 ug/ml monoclonal rat anti-mouse IgE in phosphate buffered saline (PBS) and incubated overnight at 4° C. The plates were then washed four times with PBS containing 0.05% Tween 20 and then blocked with 1% BSA in PBS at room temperature for 2 hours. This was followed by two further plate washings.
The serum samples and IgE standards were added to the wells in duplicate and incubated overnight. The plates were then washed a further four times before adding 50 ul biotinylated monoclonal rat anti-mouse IgE appropriately diluted in 0.1% BSA in PBS for 2 hours. The plate was washed for a further four times before adding 50 ul streptavidin alkaline phosphatase conjugate appropriately diluted in 1% BSA in PBS at room temperature for 50 minutes. The plate was washed a further four times before enzyme substrate (paranitrophenyl phoshate in 1M diethanolamine buffer pH 9.8) at 1 mg/ml was added. Once the colour reaction developed, the plate was read at 405 nm. Levels of total IgE in serum samples were extrapolated from curve obtained with IgE standards.
For specific IgE, the methodology was similar except for the following. The microtitre plates were coated with 50 ug/ml rat anti-mouse IgE. The serum samples or normal control sera were added to the washed plates. Biotinylated OVA diluted in 0.1% BSA in PBS was used as enzyme marker.

The subject of a further assay is IgG2a production. Briefly: Inhibition of murine antibody production, IgG2a (ovalbumin in poly I:C). Type of assay: in vivo, Balb/c mice. The conditions noted are these: Mus musculus, sc, 168 h, subcutaneous, 7 days following antigenic boost. The method, then:
To measure the effect of the compound on IgG2a production, Balb/c mice were immunised with ovalbumin in poly I:C adjuvant (polyinosinic:polycytidylic acid adjuvant) and left for 14 days before being re-challenged with ovalbumin in buffered saline vehicle and left for a further 7 days. Serum samples were taken from the mice and analysed for total and specific IgG2a. Compound was dosed daily from re-challenge to termination prior to serum collection. For total IgG2A, microtitre plates were coated with 5 ug/ml of goat anti-mouse IgG2a in PBS and incubated overnight at 4° C. The plates were then washed four times with PBS containing 0.05% Tween 20 and then blocked with 1% BSA at room temperature for 2 hours. This was followed by two further plate washings. The serum samples and IgG2a standards were added to the wells in duplicate and incubated at 4° C. overnight. The plates were then washed a further four times before adding 50 ul alkaline phosphatase conjugated goat anti-mouse IgG appropriately diluted in 0.1% BSA in PBS and left at room temperature for an hour. The plate was washed a further four times before enzyme substrate (p-nitrophenyl phosphate in 1M diethanolamine buffer pH 9.8) at 1 mg/ml was added. Once the colour reaction developed, the absorbance of the wells at 405 nm was read in a spectrophotometer. […]

Assay [2] deals with activated T-lymphocytes. Briefly: Intracellular lactate levels in activated T-lymphocytes (lactate oxidase). It is filed as cell-based. The conditions noted are these: Homo sapiens, T-lymphocyte; Mean±s.e.mean (mean±range for n=2); read-out: pIA50 Intracellular Lactate (converted). Here is the method:
(§1) PBMCs were prepared as described above by separation over Lymphoprep and T-lymphocytes were then enriched by purification on a nylon wool column. Briefly, 0.6 g nylon wool was inserted into a 10 ml syringe and this was autoclaved. […] The PBMC were resuspended in 1 ml of pre-warmed RPMI (20% HS) and were loaded onto the nylon wool column. The column was incubated for 45 min at 37° C. followed by elution of the T-cells by adding 10 ml RPMI (20% HS) (prewarmed to 37° C.) dropwise to the column. The T-cells obtained from the elution of the column were centrifuged (850 g for 5 min) and resuspended in RPMI containing L-glutamine and 5% human serum and stimulated with 0.5 ng/ml PMA and 500 ng/ml lonomycin for 48 h.
100 μl of each concentration were added to triplicate wells of a 24-well plate. T-cells were then added (1 ml per well) and were cultured for 4 h under standard cell culture conditions. The cells were then transferred from each well to microfuge tubes and were centrifuged at 360 g for 5 min at 4° C. The supernatant was discarded and the cell pellet was resuspended in 1 ml of ice-cold PBS, pH5.0. The cells were washed twice in PBS by centrifugation (360 g, 5 min, 4° C.) followed by resuspension of the cell pellet in 100 μl deionized water. The cells were incubated for 15 min at 4° C. to allow cell lysis to occur and the cell debris was removed by centrifugation at 15000 g for 10 min at 4° C. 10 μl of each supernatant sample were used for the lactate determination.
(§2) The assay was carried out in 96-well plates at room temperature. 10 μl of standard or sample were added to each well followed by 200 μl of the Lactate Reagent. […] The data were collected and analysed using SOFTmax PRO software (Molecular Devices).

Assay [3] relates to activated T-lymphocytes. Briefly: Extracellular lactate levels in activated T-lymphocytes (lactate oxidase). Type of assay: cell-based, human. Here is the method: as §1
20 μl of each concentration were added to triplicate wells of a 96-well plate. T-cells were then added (200 μl per well, 2×10^5 cells) and were cultured for 4 h under standard cell culture conditions. The cell supernatants were collected from each well after the cells were pelleted by centrifugation of the plate at 850 g for 5 min at 4° C. 10 μl of each supernatant sample were used for the lactate determination.
as §2

Assay [4] deals with peripheral blood mononuclear cells (PBMC). In words: T-lymphocyte proliferation, PMA/ionomycin stimulated PBMC, 3 days. The conditions noted are these: Homo sapiens, 72 h, read-out: pIA50 Proliferation (3 days) (converted).
Excerpt: The cell signalling pathways triggered by T-cell activation through the T cell receptor and CD28 can be mimicked in vitro using a phorbol ester, phorbol 12-myristate 13-acetate (PMA), which activates protein kinase C, and ionomycin, which induces calcium release from internal cellular stores. PMA and ionomycin-stimulated proliferation of peripheral blood mononuclear cells (PBMC), of which the predominant cell type is T-lymphocytes, provides a suitable assay for measuring the ability of small molecules to block T-cell proliferation.
Blood was centrifuged at 850 g for 10 minutes and the plasma was removed. […] The blood/Lymphoprep layers were centrifuged at 850 g for 20 minutes at 18° C. (with no brake).
10 μl of compound in solution was then added to the 96-well flat bottom assay plate (final volume of 200 μl). […] Both were diluted to 4× the final assay concentration in complete medium. 50 μl of each reagent was dispensed per well to give a final assay concentration of 0.5 ng/ml PMA and 500 ng/ml ionomycin. Control wells received 100 μl cells with PMA only (negative control 1), with ionomycin only (negative control 2) and 100 μl cells with 50 μl PMA and 50 μl ionomycin with no test compound (positive control). 100 μl complete medium was added to the negative controls. […]
Assay [5] concerns activated T-lymphocytes. Briefly: DNA synthesis ([3H]-thymidine incorporation) in activated T-lymphocytes. Type of assay: cell-based. The conditions noted are these: Homo sapiens, T-lymphocyte; Mean±s.e.mean (mean±range for n=2); read-out: pIA50 DNA (converted). Here is the method: as §1
DNA synthesis was assessed by measuring the incorporation of [^3H]-thymidine. The assay was carried out in a 96-well plate. 20 μl of test compounds at 10× the final concentration were added to the plate followed by 200 μl of T-cells per well (2×10^5 cells). The cells were cultured for 4 h under standard cell culture conditions and cultures were pulsed with ^3H-thymidine (0.5 μCi/well; Amersham) for the final hour of the incubation.

Read-outs that look alike come from different tables or passages of the source.

In the case of `CC(C)Cn1c(=O)n(C)c(=O)c2cc(Cc3nc4ccccc4s3)sc21` [Ligand 4, 6-([benzothiazol-2-yl]methyl)-3-methyl-1-(2-methylpropyl)thieno[2,3-d]pyrimidine-2,4(1H,3H)-dione], the results for the IC50 (in assay [1]; at MCT1) were 32.2 nM and 787 nM, respectively.
With `CC(C)Cn1c(=O)n(C)c(=O)c2c(SCCCO)c(Cc3cccc4ccccc34)sc21` [Ligand 1, 5-[(3-hydroxypropyl)thio]-3-methyl-1-(2-methylpropyl)-6-(1-napthalenylmethyl)thieno[2,3-d]pyrimidine-2,4(1H,3H)-dione], the “inhibition of OVA specific IgE” value in the assay on IgE production (3 mg/kg subcutaneous) came out at 64%; in the assay on IgE production (30 mg/kg subcutaneous), 53%. Moreover, the “inhibition of total IgE” value in the assay on IgE production (3 mg/kg subcutaneous) stood at 67%; in the assay on IgE production (30 mg/kg subcutaneous), 84%. For the same compound, the ED50 with IgG2a production (read-out: ED50, specific IgG2a production) was found to be 10 mg/kg; with IgG2a production (read-out: ED50, total IgG2a production), 30 mg/kg. In addition, the EC50 with activated T-lymphocytes [2] was 0.407 nM. In addition, the “maximum level of inhibition, extracellular lactate” value in the assay on activated T-lymphocytes [3] is given as 30±1.9%.
Take `CON(C)C(=O)c1c(Cn2c(C)nc(Cl)c2Cl)sc2c1c(=O)n(C)c(=O)n2CC(C)C` [Ligand 5, 6-[(4,5-Dichloro-2-methyl-1H-imidazol-1-yl)methyl]-1,2,3,4-tetrahydro-N-methoxy-N,3-dimethyl-1-(2-methylpropyl)-2,4-dioxo-thieno[2,3-d]pyrimidine-5-carboxamide]: the IC50 in assay [4] was 1.66 nM; in the assay on activated T-lymphocytes [5] it was 2.69 nM; in the assay on activated T-lymphocytes [3] (Homo sapiens, T-lymphocyte, Mean±s.e.mean (mean±range for n=2), read-out: pIA50 Extracellular Lactate (converted)), 3.8 nM. Besides, the EC50 in the assay on activated T-lymphocytes [2] was 2.29 nM.
Consider `CC(C)Cn1c(=O)n(C)c(=O)c2cc(Cc3ccnc4ccccc34)sc21` [Ligand 3, 6-(4-quinolinylmethyl)--3-methyl-1-(2-methylpropyl)-thieno[2,3-d]pyrimidin-2,4(1H,3H)-dione], for which the IC50 in assay [1] worked out at 15.4 nM; at MCT1, 105 nM.

Source of the values: US20040072746A1, “Inhibitors of monocarboxylate transport” (priority 2001, published 2004).
